# From US9126982B2, “Heterocyclic compounds, medicaments containing them, use and processes for the preparation thereof” (Boehringer Ingelheim International GmbH, priority 2013, dated 2015)
# Where two headings read alike, the source gives them in different places.
# Tests used:
# Mouse kidney M-1 cells = assay: Ussing Chamber assay, short circuit current in M-1 cells; assay type: cell-based; conditions: inhibition of amiloride sensitive short circuit current (I_sc), compounds applied to the apical solution, 37° C.
# Method: Ussing Chamber: Mouse kidney M-1 cells were cultivated in DMEM containing 5% FCS and 5 μM dexamethasone for 10 to 12 days on polyester transwell filters. Filters were inserted into a teflon-coated well-plate which fit into the ussing chamber system. Prior to measurement the medium of M-1 cells was replaced with Caco-2 transport buffer (Invitrogen, Germany). During measurements, the Ussing chamber temperature was kept at 37° C. Short circuit currents (I_sc) were measured in the voltage-clamp mode using an amplifier with the software package Lab View for data acquisition and analysis. The transepithelial electrical resistance (TEER) was determined by the application of voltage steps of ±5 mV every 5 sec. Compounds were administered at a final concentration of 3 μM or at increasing concentrations (e.g. 1-3-10 μM) to the apical solution. At the end of each experiment the amiloride sensitive I_SC was measured by adding 3 μM amiloride to the apical compartment. Results are expressed as inhibition in percent of the amiloride effect or as IC50.
# With the example compounds given above, the following IC50 values given in Table 1 were determined in the Ussing Chamber assay: […]
# [1] = Permeability and efflux in CALU-3 cells; assay type: in vitro ADME; conditions: human, Papp basal-to-apical, CALU-3 monolayers, pH 7.4, 37° C., 10 μM compound, read-out: P BA
# Method: Permeability and Efflux in CALU-3 Cells:
# Permeability measurements across polarized, confluent CALU-3 cell monolayers grown on permeable filter supports are used to provide information on the potential of a compound to pass the lung epithelium.
# CALU-3 cells (1-2×10^5 cells/1 cm^2 area) are seeded on filter inserts (Costar transwell polycarbonate filters, 0.4 μm pore size) and cultured (DMEM) for 10-12 days until tight monolayers are formed. Compounds of interest are dissolved in appropriate solvent (DMSO, 10 mM stock solution). Stock solutions are diluted with HTP-4 buffer (128.13 mM NaCl, 5.36 mM KCl, 1 mM MgSO4, 1.8 mM CaCl2, 4.17 mM NaHCO3, 1.19 mM Na2HPO4×7H2O, 0.41 mM NaH2PO4×H2O, 15 mM HEPES, 20 mM glucose, 0.25% BSA, pH 7.4) to prepare the transport solutions (10 μM compound, final DMSO<=0.5%). The transport solution (TL) is applied to the apical or basolateral donor side for measuring A-B or B-A permeability (3 filter replicates), respectively. The receiver side contains the same buffer as the donor side. After 30 min of accommodation, samples are collected at the start t0=0 min and at the end of the experiment tn=90 min from the donor and at 0, 30, 60, and 90 min also from the receiver chamber. Volume removed is replenished by HTP-4 buffer. The compound concentration in the samples is measured by HPLC-MS/MS or scintillation counting. The permeability coefficient (Papp) and efflux ratio are calculated according to: Papp [cm/s]=(concentration receiver [nM]*volume receiver [mL]/time interval [sec])*(1/filter area)*(1/donor concentration [nM]) Efflux ratio or Uptake ratio=Papp,BA/Papp,AB
Compound,IC50 (Mouse kidney M-1 cells) [nM],"Papp B→A at 90 min, 10 μM ([1]; exponent E−07) [×10⁻⁶ cm/s]","Papp B→A at 90 min, 10 μM ([1]; exponent E−06 printed in the row below (r3)) [×10⁻⁶ cm/s]"
COC(=O)CN(C)[C@H]1CC[C@H](N/C(N)=N/C(=O)c2nc(Cl)c(N)nc2N)CC1 [Example 1.1],7,,
N/C(=N\C(=O)c1nc(Cl)c(N)nc1N)N[C@H]1CC[C@H](NC(=O)CN(CC(=O)O)CC(=O)O)CC1 [Example 2.1],304,,
C[N+]1(C)CCN(CC(=O)N[C@H]2CC[C@H](N/C(N)=N/C(=O)c3nc(Cl)c(N)nc3N)CC2)CC1.[I-] [Example 3.1],25,0.229,
CN(C)CCCN[C@H]1CC[C@H](N/C(N)=N/C(=O)c2nc(Cl)c(N)nc2N)CC1 [Example 4.1],31,,< 2.72
CC(C)(C)OC(=O)c1ccc(C(=O)N[C@H]2CC[C@H](N/C(N)=N/C(=O)c3nc(Cl)c(N)nc3N)CC2)cc1 [Example 5.1],10,,

# Continued, values first:
IC50 (Mouse kidney M-1 cells) [nM],"Papp B→A at 90 min, 10 μM ([1]; exponent E−07) [×10⁻⁶ cm/s]","Papp B→A at 90 min, 10 μM ([1]; exponent E−06 printed in the row below (r3)) [×10⁻⁶ cm/s]",Compound
34,0.225,,C[C@@H](N)C(=O)N[C@H]1CC[C@H](N/C(N)=N/C(=O)c2nc(Cl)c(N)nc2N)CC1.O=C(O)C(F)(F)F [Example 6.1]
6,< 0.272,,N/C(=N\C(=O)c1nc(Cl)c(N)nc1N)N[C@H]1CC[C@H](N)CC1 [Example 6.2]
10,,,N=C(N)N[C@H]1CC[C@H](N/C(N)=N/C(=O)c2nc(Cl)c(N)nc2N)CC1 [Example 7]
25,0.354,,CN1CCN(S(=O)(=O)N[C@H]2CC[C@H](N/C(N)=N/C(=O)c3nc(Cl)c(N)nc3N)CC2)CC1.O=C(O)C(F)(F)F [Example 8]
